Measured values reported in paper PMC11331178 (Journal of Advanced Research, 2023).
pKd: −log10 of the molar value.

Target: T1, TFEB (Homo sapiens, UniProt P19484)
T1 sequence (P19484 1-476 limits assumed): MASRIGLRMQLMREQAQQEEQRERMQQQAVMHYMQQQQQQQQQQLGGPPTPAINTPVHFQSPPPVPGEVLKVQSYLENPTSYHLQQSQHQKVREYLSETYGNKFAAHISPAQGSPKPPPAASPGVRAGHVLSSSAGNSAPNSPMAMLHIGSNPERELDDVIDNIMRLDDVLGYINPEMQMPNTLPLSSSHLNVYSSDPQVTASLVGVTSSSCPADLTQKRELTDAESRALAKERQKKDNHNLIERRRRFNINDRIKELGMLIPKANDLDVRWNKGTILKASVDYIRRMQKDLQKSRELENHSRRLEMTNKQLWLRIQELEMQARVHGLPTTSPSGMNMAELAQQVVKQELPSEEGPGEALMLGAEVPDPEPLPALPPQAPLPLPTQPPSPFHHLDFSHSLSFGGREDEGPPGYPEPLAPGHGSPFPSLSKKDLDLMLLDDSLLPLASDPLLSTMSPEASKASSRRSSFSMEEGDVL
Experiment: SPR, Biacore S200, CM5 chip
Assay type: binding

pKd: 4.08
Structure (SMILES): C=C[C@]1(C)CC[C@@H](C(=C)C)C[C@H]1C(=C)C [β-ELE]
